This note sets out measurements from patent US6635242B2, “Broad spectrum microbicidal and spermicidal compositions, devices, and methods” (The Pennsylvania State University, priority 1998, dated 2003).

SMILES strings stand for the structures.

One assay concerns HIV-1 (strain IIIB). Put plainly: HIV-1 inactivation assay (HeLa-CD4-LTR-β-gal indicator cells). The assay is classed as cell-based. The conditions noted are these: 10 min 37° C. Here is the method:
One day prior to the assay, HeLa-CD4-LTR-β-gal cells were seeded into 12-well culture dishes at a concentration of 8×10^4 cells per well. A high titer (10^7.17 TCID50/ml) virus stock of HIV-1 (strain IIIB; Advanced Biotechnologies, Inc., Columbia, Md.) was diluted 1:10 with RPMI 1640 supplemented with 10% FBS. To assess viral inactivation by SDS, 78 μl of diluted virus were mixed with 2 μl of detergent solution, and incubated for 10 min at 37° C. After the inactivation period, the virus and detergent were diluted with 720 μl R10 (1:10) supplemented with DEAE dextran (20 μg/ml final concentration). Aliquots of treated virus (300 μl) were then added to duplicate wells of HeLa cells and incubated at 37° C. for 2 hr. Following viral adsorption, 2 ml of fresh media (DMEM supplemented with 10% FBS, 0.1 mg/ml G418, and 0.05 mg/ml hygromycin B) were added to each well. After incubation at 37° C. and 5% CO2 for 48 hr post-infection, cells were fixed and stained for β-galactosidase expression.
It is established that N-9 can inactivate HIV-1. We compared inactivation of HIV-1 by a second non-ionic detergent, C31G, and by SDS. High titer virus stocks of HIV-1 were incubated with either C31G or SDS and then virus was assayed on indicator cells expressing β-gal under the control of the HIV-1 LTR. After 48 hours, cells were stained and the number of cells expressing increased β-gal counted. […].

The test system of the next assay is BPV-1. Put plainly: BPV-1 focus assay in C127 mouse cells. The conditions noted are these: for foci/plate Exp. 2 Day 14 / foci/plate Exp. 2 Day 17: 37° C. 10 minutes; for foci/plate Exp. 2 Day 14 / foci/plate Exp. 2 Day 17 / foci/plate Exp. 1 day 12: diluted 1:1000; for foci/plate Exp. 1 day 12: 37° C. 30 minutes. The assay is classed as cell-based, bovine papillomavirus. Here is the method: Cell-free stocks of BPV-1 were prepared by extraction (10% w/v) of epidermal bovine warts in phosphate buffered saline (PBS). In order to detect the transforming ability of BPV-1, C127 mouse cells were seeded (3×10^5 cells per flask) into T-25^2 flasks. After 24 hr of growth, subconfluent cells were infected with BPV-1. For the positive controls, stock virus (20 μl) was diluted (1:1) with PBS, incubated at 37° C. for 10 min, diluted […] and then added (100 μl ) into the 5 ml of cell culture medium present on the cells. Cells were refed at 24 hours and subsequently 2 times weekly. The presence of morphologically transformed foci was counted after 2 weeks and then again at 3 weeks.
Virus inactivations were carried out in vitro by addition of concentrated SDS solutions to the virus stocks (20 μl of virus plus 20 μl of detergent) and subsequent incubation at 37° C. for 10 or 30 min as indicated. Following inactivation, virus was diluted 1000 fold to lower the detergent concentration and the preparations were immediately used for infection as above.
Although SDS could effectively reduce HSV-2 infectivity, it remained possible that this destruction was mediated by envelope removal. Because papillomaviruses are non-enveloped, the possibility remained that SDS would fail to inactivate these viruses. We utilized BPV-1 as a prototype PV because of its ability to rapidly (within 2 weeks) form multi-layered transformed foci in mouse fibroblasts in an in vitro assay. Table 3 describes results of two separate experiments in which stocks of BPV-1 were incubated at 37° C. with various concentrations of SDS (5% to 5×10^−4%) for either 10 or 30 minutes, diluted to lower the SDS concentration (to avoid cell toxicity) and then used to infect C127 cells. […] Table 4 lists several other commercially available detergents that were tested for possible inactivation of BPV-1. None of these detergents inactivated the morphologic transforming properties of the BPV-1.

Assay [1] deals with lymphocyte-, macrophage- and dual-tropic strains of HIV-1 (IIIB, BaL, 89.6). Nature of the assay: Cell-free HIV-1 inactivation (FIG. 5). The note with it: HCLB or P4-R5 indicator cells. The assay is classed as cell-based, human immunodeficiency virus. Here is the method:
Cell-free HIV-1 strain IIIB (A) was treated with N-9, C31G, or SDS, and used to infect HCLB cells. Cell-free HIV-1 strains BaL (M tropic) (B) and 89.6 (dual tropic) (C) were treated with N-9, C31G or SDS,and used to infect P4-R5 cells. Assays were conducted. Infectivity following exposure is expressed as a percentage relative to the number of β-gal-positive cells in duplicate wells infected with virus incubated in the absence of a microbicidal compound. Results shown in FIG. 5 are the average cell counts for a total of four wells per concentration in two independent experiments.

Assay [2] deals with HIV-1-infected SupT1 cells. Put plainly: Cell-associated HIV-1 infectivity (FIG. 6). The assay is classed as cell-based, human immunodeficiency virus. The note with it: 10 min at 37° C., co-culture with HCLB cells, FIG. 6(a). On the procedure:
(A) SupT1 T lymphocytes (8×10^4)infected 5 days prior with HIV-1 strain IIIB were pelleted and resuspended in new media to remove cell-free virus. After exposure to selected concentrations of each microbicide for 10 min at 37° C., the cells were diluted 1:10 and co-cultured with HCLB cells for 2 h. Following one wash with PBS to remove the infected lymphocytes, the indicator cells were cultured and assayed. Infectivity following exposure is expressed as a percentage relative to the number of β-gal-positive cells in duplicate wells infected with HIV-1 infected SupT1 cells incubated in the absence of a microbicidal compound. Results shown in FIG. 6(a) are the average cell counts for a total of four wells per concentration in two independent experiments. (B) SupT1 T lymphocytes (8×10^4) were incubated with selected concentrations of each microbicide for 10 min at 37° C., and then diluted 1:10 with new media. Following a 2 h incubation period, the cells were assessed for viability. Cell survival after treatment is expressed as the fraction of viable cells relative to the number of mock-exposed cells. Results shown in FIG. 6(b) are the average of two experiments in which triplicate wells for each concentration were assayed.

Where [3] appears, read: 2.5 × 10^−3 % SDS during treatment.
The mark [4] stands for this setting: 5 × 10^−2 % SDS during treatment.
Setting [5] is: 5 × 10^−3 % SDS during treatment.
The mark [6] stands for this setting: 5 × 10^−4 % SDS during treatment.

Turning to `CCCCCCCCCCCCOS(=O)(=O)[O-].[Na+]` [SDS, Sodium dodecyl sulfate], the “concentration (as low as) giving total inactivation of HIV-1” value in the assay with HIV-1 (strain IIIB) was found to be 0.025%. The “foci/plate Exp. 2 Day 14” value in the assay on BPV-1 (setting [3]) is on record as 273; in the assay on BPV-1 (setting [4]), 0; in the assay with BPV-1 (setting [5]) it was 271; in the assay on BPV-1 (setting [6]), 229. The “foci/plate Exp. 2 Day 17” value in the assay with BPV-1 (setting [3]) came to 162; with BPV-1 (setting [4]), 0; in the assay on BPV-1 (setting [5]), 150; in the assay with BPV-1 (setting [6]), 151. Further, the “foci/plate Exp. 1 day 12” value in the assay with BPV-1 (5 % SDS during treatment), in the assay on BPV-1 (5 × 10^−1 % SDS during treatment), with BPV-1 (setting [4]) and in the assay with BPV-1 (setting [5]) was 0 throughout. In the assay on BPV-1 (compared with other alkyl sulfate group members), the “relative potency in dose response curves” value is “most potent”. Further, the “inactivation of BPV-1 morphologic transformation of C127 cells” value with BPV-1 (detergent 1% final concentration, 37° C., 10 min) was “completely eliminated virus foci”. For the same compound, the results for the “concentration (as low as) that totally inactivates BPV-1 transforming ability” value in the assay with BPV-1 (treatment of the virus at 37° C. for 10 minutes) and in the assay on BPV-1 (treatment of the virus at 37° C. for 30 minutes) were 0.05% and 0.005%, respectively. The “inactivation of cell-free HIV-1 strains IIIB, BaL and 89.6 (infectivity, β-gal-positive cells)” value in assay [1] was “inactivated”. For the same compound, the “cell-associated infectivity of HIV-1-infected SupT1 cells” value in assay [2] was “can reduce the cell-associated infectivity”.
